The source of these data is patent US4421768A, “Fluorinated diamino-heptene and-heptyne derivatives” (Merrell Toraude et Compagnie, priority 1982, dated 1983).

The target in the experiment is T1, Ornithine decarboxylase (ODC) (Rattus norvegicus, UniProt P09057).
T1 construct: prepared from the livers of rats which have been injected with thioacetamide; from tissue; host or cells: liver of thioacetamide-injected rats, purified about ten fold by acid treatment at pH 4.6
T1 sequence (P09057 1-461): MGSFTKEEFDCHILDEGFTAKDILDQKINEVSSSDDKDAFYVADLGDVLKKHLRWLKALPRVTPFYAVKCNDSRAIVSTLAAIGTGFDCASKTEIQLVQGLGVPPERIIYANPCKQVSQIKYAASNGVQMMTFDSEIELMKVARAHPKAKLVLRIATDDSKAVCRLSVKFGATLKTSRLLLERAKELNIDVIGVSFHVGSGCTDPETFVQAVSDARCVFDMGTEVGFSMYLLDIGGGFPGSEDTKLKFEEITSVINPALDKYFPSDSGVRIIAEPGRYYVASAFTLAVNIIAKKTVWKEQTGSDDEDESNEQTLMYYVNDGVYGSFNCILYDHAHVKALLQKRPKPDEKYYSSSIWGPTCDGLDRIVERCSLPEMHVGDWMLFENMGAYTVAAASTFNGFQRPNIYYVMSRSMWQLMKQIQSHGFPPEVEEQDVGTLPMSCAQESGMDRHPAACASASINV
Nature of the experiment: In vitro inhibition of ornithine decarboxylase (ODC) prepared from livers of thioacetamide-injected rats (time-dependent inactivation, 14CO2 release). It counts as biochemical. As for the experimental part: Ornithine decarboxylase (ODC) is prepared from the livers of rats which have been injected with thioacetamide (150 mg/kg of body weight) 18 hrs before sacrifice, and is purified about ten fold by acid treatment at pH 4.6 as described by Ono et al (Biochem. Biophys. Acta 284, 285 (1972)). The stock solution of ODC is comprised of protein (16 mg/mL), sodium phosphate buffer (30 mM, pH 7.1), dithiothreitol (5 mM) and pyridoxal phosphate (0.1 mM). The specific activity of this stock solution is 0.12 nmol of CO2 /min per mg of protein. For a typical experiment 320 μl of this stock solution are mixed at time 0 with 80 μl of a solution of the inhibitor in water and incubated at 37°. At different times 50 μl aliquots are transferred into a 1-mL assay medium containing sodium phosphate (30 mM, pH 7.1), dithiothreitol (5 mM), pyridoxal phosphate (0.1 mM), L-ornithine (0.081 μmol), and DL-[1-^14 C] ornithine (0.043 μmol, 58 Ci/mol, Amersham) in a closed vessel in which a filter paper moistered with 50 μl hyamine hydroxide (1 M) is fitted. The reaction is allowed to proceed for 60 min at 37° C. and then terminated by addition of 0.5 ml of 40% trichloroacetic acid. After an additional 30 min the CO2 absorbed on the filter paper is counted in a standard scintillation cocktail, KI (apparent dissociation constant) and .tau.50 (half-life, at infinite concentration of inhibitor are calculated according to the method of Kitz and Wilson (J. Biol. Chem., 237, 3245 (1962)).
When tested according to the above-described procedure, the compounds of Examples I and 2 gave the results shown below. Half-life (t1/2) at 10 μM is also set forth below.

Counter-ions that a name gives are not always drawn. Like-named read-outs stand apart in the source and are kept apart here.

`C#CC(N)CCC(N)C(F)F` (stereo not shown) [Example 2, 1,1-DIFLUORO-2,5-DIAMINO-6-HEPTYNE, DIHYDROCHLORIDE] showed a Ki of 1500 µM.

Consider `C#CC(N)CCC(N)CF.Cl.Cl` (stereo not shown) [Example 1, 1-FLUORO-2,5-DIAMINO-6-HEPTYNE DIHYDROCHLORIDE], for which the Ki (rat liver ODC, 37°, pH 7.1, calculated by method of Kitz and Wilson, read-out: KI (apparent dissociation constant)) is 50 µM. Further, the “T50 (.tau.50, half-life at infinite concentration of inhibitor)” value (rat liver ODC, 37°, pH 7.1, infinite concentration of inhibitor, method of Kitz and Wilson) was found to be 3.7 min. The “t1/2 (half-life at 10 μM)” value (rat liver ODC, 37°, pH 7.1, inhibitor 10 μM) is given as 22 min.
